Source: patent US8541607B2, “Disulfide, sulfide, sulfoxide, and sulfone derivatives of cyclic sugars and uses thereof” (Lacer, S.A., priority 2003, dated 2013)

Assays:
[1] = system: New Zealand White rabbits fed 1% cholesterol diet; assay: Atherogenesis in rabbits fed on high cholesterol diet; format: in vivo, rabbit
Protocol: The method used is substantially the same as described in Shore B, Shore V., In: Day CE (ed) Atherosclerosis Drug Discovery, Plenum Press, New York and London, pp 123-141, 1976.
Twenty-one male New Zealand White rabbits (10 weeks old at the beginning of the protocol) were maintained under standardized conditions (22° C., 40% to 60% humidity) with regular day/night cycle and free access to water. The animals were randomly assigned to 1 of 3 groups. Group 1 (n=5) received standard maintenance diet for 75 days; group 2 (n=16) received the same diet but supplemented with 1% (wt/wt) cholesterol for 45 days. At the end of this period, group 2 was classified into two randomly groups. The treated-group (n=9) receiving for additional 30 days 1.9 mg/kg/day of compound 12 (maintaining the 1% cholesterol in its diet), and the non-treated group (n=[…]) receiving a diet with a 1% of cholesterol for additional 30 days.
Study variables included triglycerides and total cholesterol. Animals were euthanized on day 75 after the start of the protocol with pentobarbital i.v. The entire aorta was removed 1 or 2 cm into the iliac arteries and fixed in buffer phosphate 0.1 M (pH 7.4) with glutaraldehyde (4%). Macroscopic and microscopic analyses of the samples were performed in a blinded fashion. Aortas were dissected and stained with Red Oil. Adventitial fat was removed, and aortas were opened longitudinally, immersed in Red Oil solution for overnight, washed in propylenglycol and fixed onto a flat surface. Images of the aortas were taken with a standard camera. Subsequently, 3 sections were taken from the aortic arch area, the thoracic aorta, and at the abdominal aorta (renal orifices). Sections were paraffin-embedded, were cut with a microtome Ultracut (Spain) and stained conventionally with hematosiline eosin. Images of aortas stained with Red Oil and hematosiline eosin were taken with a standard camera. Images were imported into Photoshop (Adobe) with a AGFA slide scanner. By means of the procedure previously described by Lillie RD (Lillie, R. D., 1994, Stain Technology, vol. 19, pp 55) the surface of injury in all the aorta and the thickness of the intima in histological samples was determined. The surface or area of the atherosclerotic injury (evaluated from the stained aortas with the Red Oil) are determined by the number of pixels of the image turned to mm^2. The intima thickness of the arteria (evaluated from the stained histological samples with Haematosiline-Eosin) was quantified in mm in a similar way to that described the surface or area of the atherosclerotic injury. For it, the sections that contained injuries of fatty striae were selected and the thickness of the intima was determined (from the arterial media to endothelium). The mean thickness of the lesion area was assessed in representative sections per aortic quadrant, and the statistical mean was calculated.

[2] = system: apo E-deficient mouse (OLA129X C57/BL6J); assay: Atherogenesis in apo E-deficient mouse on standard diet; format: in vivo; details: 5 mg/Kg/day, 12 weeks
Source text: Preventing and curative effect on atherogenesis of the compounds it is investigated in apo E-deficient mouse fed on standard diet model. Male and female apo E-deficient mouse (OLA129X C57/BL6J) of three months old were fed on standard diet. The control group included 8 males and 7 females mouse, while the treated group consist of 8 males and 7 females mouse. All the animals had similar cholesterol and body weight at the beginning of the experiment. Both the control and the treated groups were studied for 12 weeks. The treated group received 5 mg/Kg/day of the compound (12).
Plasma lipid parameters (total cholesterol, HDL cholesterol and triglycerides) and oxidative stress (measured as 8-iso-prostaglandin F2α levels) were measured at predetermined intervals. After completion of the administration period, the thoracic aorta was isolated and stained to determine the area of the atherosclerotic injuries deposited in the internal wall of the blood vessel in according with the Red Oil method (Lillie, R. D., 1994, Stain Technology, vol. 19, pp 55).

[3] = system: Rats, left carotid artery thrombosis (FeCl3); assay: In vivo synergistic antithrombotic effect, FeCl3 carotid artery thrombosis, single drugs and combinations; parameters: species or system rat; details: Compound 12 22.3 mg/Kg, oral, acute the day of study
Protocol: The method used is substantially the same as described by Kurz (Kurz K. D., at al., Thromb. Res. 1990, 60: 269-280) and modified by Feuerstein (Feuerstein G. Z., et al., Artherioscler, Thromb. Vasc. Biol. 1999, 19: 2554-25562). […]
Forty-five minutes after dosing administration, rats were anaesthetized with sodium pentobarbital (40 mg/kg, i.p.) and they were placed later dorsally on a heated (37° C.) surgical board.
The left carotid artery was isolated and a Parafilm M sheet (7×20 mm, American National Can) was placed under it. An electromagnetic sounding of flow (Transonic Systems Inc.) was placed on the artery to measure blood flow.
Sixty minutes after product administration, a paper patch saturated with FeCl3 solution (70%) was placed (and not removed for the whole duration of the experiment) on the left carotid artery downstream from the sounding of flow to initiate thrombosis. The blood flow was controlled during the 60 min later to the application of the patch in the artery.
The vessel was considered totally occluded by the thrombus formed when no blood flow was detected (0.0 ml/min). In this model, occlusive thrombus formation usually takes place within 15 to 20 minutes in non-treated animals.
The fractional product concept was used to identify synergy between the compounds. In accordance with this concept, if we consider the full protection of the animal as:
[formula] where A is the rate of animals with thrombotic occlusion in treated group; and B is the rate of animals with thrombotic occlusion in the control group.
For two drugs that act of independent way:
[formula] where A1 is the rate of animals with thrombotic occlusion in the treatment group A1; A2 is the rate of animals with thrombotic occlusion in the treatment group A2; and B is the rate of animals with thrombotic occlusion in the control group
If the protection obtained with the combination of the drugs is higher than the fractional inhibition for two compounds acting independently then synergism is considered to occur.
The results are shown in table 14 and are expressed as rate of animals with thrombotic occlusion in each group.

[4] = 1.9 mg/kg/day for 30 days, 1% cholesterol diet, end, mean ± s.e.m.
[5] = treated group, basal, mean ± s.e.m.

CC(=O)S[C@H]1CO[C@H]2[C@@H]1OC[C@H]2O[N+](=O)[O-] [(12), 2-acetylthio-isosorbide-5-mononitrate]
Plasmatic Total cholesterol, End [1, 4]: 1461 ± 147 mg/dL
Plasmatic Triglycerides, End [1, 4]: 347 ± 82 mg/dL
influence upon lipid metabolism (plasma lipids vs control) ([1]; 1.9 mg/kg/day for 30 days, in words): did not influence upon lipid metabolism
Plasmatic Total cholesterol, Basal [1, 5]: 33.3 ± 4.1 mg/dL
Plasmatic Triglycerides, Basal [1, 5]: 121 ± 34 mg/dL
levels of triglycerides in plasma (in words) [2]: decrease
oxidative stress (in words) [2]: decrease
HDL-cholesterol, Female ([2]; female, control 0.4 ± 0.1, mean ± s.d.): 0.48 ± 0.13 mmol/L
Triglycerides, Female ([2]; female, control 1.9 ± 0.6, mean ± s.d.): 1.3 ± 0.2 mmol/L
Total cholesterol, Female ([2]; female, control 9.5 ± 2, mean ± s.d.): 11.3 ± 1.5 mmol/L
8-iso-prostaglandin F2α, Female ([2]; female, oxidative stress, control 182 ± 19, mean ± s.d.): 99 ± 7 pg/mL
HDL-cholesterol, Male ([2]; male, control 0.5 ± 0.15, mean ± s.d.): 0.47 ± 0.15 mmol/L
Triglycerides, Male ([2]; male, control 2.6 ± 0.6, mean ± s.d.): 1.5 ± 0.4 mmol/L
Total cholesterol, Male ([2]; male, control 14.3 ± 2, mean ± s.d.): 18 ± 3 mmol/L
8-iso-prostaglandin F2α, Male ([2]; male, oxidative stress, control 273 ± 19, mean ± s.d.): 101 ± 13 pg/mL
% of animals protected [3]: (50%)
Rate of animals with thrombotic occlusion ([3]; control 1): 0.5
